From patent US20120220563A1, “Substituted piperidines” (BAYER PHARMA AKTIENGESELLSCHAFT, priority 2009, published 2012)

Tested on: platelet aggregation in platelet-rich plasma triggered by thrombin receptor agonist (TRAP6, SFLLRN)
Assay: Platelet aggregation in plasma (TRAP6/SFLLRN-triggered, turbidimetry according to Born)
Type: cell-based
Conditions: Homo sapiens, 10 min, platelet-rich plasma of healthy volunteers, 10 min at 37° C. with test substance, concentration which inhibits aggregation by 50%
Method: To determine the platelet aggregation, blood from healthy volunteers of both genders, who had not received any platelet aggregation-influencing medication for the last ten days, is used. The blood is taken up into monovettes (Sarstedt, Nümbrecht, Germany) which contain, as anticoagulant, sodium citrate 3.8% (1 part of citrate+9 parts of blood). To obtain platelet-rich plasma, the citrated whole blood is centrifuged at 140 g for 20 min
For the aggregation measurements, aliquots of the platelet-rich plasma with increasing concentrations of test substance are incubated at 37° C. for 10 min. Subsequently, aggregation is triggered by addition of a thrombin receptor agonist (TRAP6, SFLLRN) in an aggregometer and determined at 37° C. by means of the turbidimetry method according to Born (Born, G. V. R., Cross M. J., The Aggregation of Blood Platelets; J. Physiol. 1963, 168, 178-195). The SFLLRN concentration leading to maximum aggregation is, if appropriate, determined individually for each donor.
To calculate the inhibitory effect, the maximum increase of light transmission (amplitude of the aggregation curve in %) is determined within 5 minutes after addition of the agonist in the presence and absence of test substance, and the inhibition is calculated. The inhibition curves are used to calculate the concentration which inhibits aggregation by 50%.

Row | SMILES | IC50 [nM]
1 | CCc1ccc(C2CC(c3nc(OCCOC)no3)CN(C(=O)N3CCS(=O)(=O)CC3)C2)cc1 (single isomer, unassigned) [Example 63, (1,1-Dioxidothiomorpholin-4-yl){3-(4-ethylphenyl)-5-[3-(2-methoxyethoxy)-1,2,4-oxadiazol-5-yl]-piperidin-1-yl}-methanone] | 0.24
2 | CCOc1noc(C2CC(c3ccc(CC(F)(F)F)cc3)CN(C(=O)N3CCS(=O)(=O)CC3)C2)n1 (single isomer, unassigned) [Example 69, (1,1-Dioxidothiomorpholin-4-yl) {3-(3-ethoxy-1,2,4-oxadiazol-5-yl)-5-[4-(2,2,2-trifluoroethyl)-phenyl]piperidin-1-yl}methanone] | 0.25
3 | CCOc1noc(C2CC(c3ccc(CC(F)(F)F)cc3)CN(C(=O)N3CC[S+]([O-])CC3)C2)n1 (single isomer, unassigned) [Example 66, {3-(3-Ethoxy-1,2,4-oxadiazol-5-yl)-5-[4-(2,2,2-trifluoroethyl)phenyl]piperidin-1-yl}(1-oxidothio-morpholin-4-yl)methanone] | 0.54
4 | CCN(CC)c1noc(C2CC(c3ccc(C(F)(F)F)cc3)CN(C(=O)N3CCOCC3)C2)n1 (single isomer, unassigned) [Example 6, {3-[3-(Diethylamino)-1,2,4-oxadiazol-5-yl]-5-[4-(trifluoromethyl)phenyl]piperidin-1-yl}-(morpholin-4-yl)methanone] | 0.67
5 | CCOc1noc(C2CC(c3ccc(CC)c(F)c3)CN(C(=O)N3CCS(=O)(=O)CC3)C2)n1 (racemic) [Example 101, (1,1-Dioxidothiomorpholin-4-yl)[3-(3-ethoxy-1,2,4-oxadiazol-5-yl)-5-(4-ethyl-3-fluorophenyl)-piperidin-1-yl]methanone] | 0.3
